We go through 5 compounds from ChEMBL document CHEMBL1142127, “Neuroprotective principles from Gastrodia elata” (J Nat Prod, 2007).

Calls of active or inactive are those of the source. No cut-off for these calls is given here.

The test system of experiment [1] is PC-12. The experiment can be described thus: Prevention of serum deprivation-induced PC12 cell apoptosis at > 100 uM by MTT assay. It is filed as functional, cell-based. The settings on record: Rattus norvegicus. In general terms: Tetrazolium dyes change colour on reduction, which living cells bring about.
The next experiment addresses Adenosine receptor A2a (Rattus norvegicus, UniProt P30543). The experiment in a line: Binding affinity to adenosine A2A receptor in rat brain striatum. It is filed as tissue-based.
Experiment [2] relates to PC-12. The experiment in a line: Prevention of serum deprivation-induced PC12 cell apoptosis by MTT assay. It is filed as functional, cell-based. The following applies: Rattus norvegicus.
Experiment [3] concerns PC-12. The experiment can be described thus: Prevention of serum deprivation-induced PC12 cell apoptosis at 100 uM by MTT assay. Type of experiment: functional, Rattus norvegicus.

Chain of Adenosine receptor A2a (P30543 whole entry): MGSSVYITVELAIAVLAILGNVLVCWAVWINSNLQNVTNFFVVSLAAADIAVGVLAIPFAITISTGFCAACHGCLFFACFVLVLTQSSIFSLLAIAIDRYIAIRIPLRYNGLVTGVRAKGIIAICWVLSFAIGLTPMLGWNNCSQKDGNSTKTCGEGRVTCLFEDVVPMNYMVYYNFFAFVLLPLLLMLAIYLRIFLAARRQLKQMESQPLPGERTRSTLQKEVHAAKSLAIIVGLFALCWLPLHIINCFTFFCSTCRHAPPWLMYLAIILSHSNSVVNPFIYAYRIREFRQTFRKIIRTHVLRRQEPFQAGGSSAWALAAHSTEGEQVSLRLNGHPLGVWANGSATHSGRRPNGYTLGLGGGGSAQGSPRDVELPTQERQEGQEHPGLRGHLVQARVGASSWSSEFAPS

As for `OCc1ccc(O[C@@H]2O[C@H](CO)[C@@H](O)[C@H](O)[C@H]2O)cc1`, in the experiment with PC-12 [1], the outcome was inactive. Turning to `OC[C@H]1O[C@@H](n2cnc3c(NCc4ccc(O)cc4)ncnc32)[C@H](O)[C@@H]1O`, at Adenosine receptor A2a, the 50% inhibitory concentration (IC50) was 4.66 µM and the Ki was 2.62 µM. This compound also returned a concentration for a half-maximal effect (EC50) with PC-12 [2] of 0.037 µM.

As for `C[C@H]1O[C@@H](Oc2ccc(COC(=O)CC(O)(CC(=O)OCc3ccc(O[C@@H]4O[C@H](CO)[C@@H](O)[C@H](O)[C@H]4O)cc3)C(=O)Oc3ccc(O[C@H]4O[C@H](CO)[C@@H](O)[C@H](O)[C@H]4O)cc3)cc2)[C@H](O)[C@@H](O)[C@@H]1O` (some centres undefined), the outcome in the experiment with PC-12 [1] was inactive.

On to `Oc1ccc(CSCc2ccc(O)cc2)cc1`, for which, at Adenosine receptor A2a, the IC50 amounted to 42.9 µM and the Ki worked out at 24.1 µM. Moreover, the response in the experiment with PC-12 [2] was half-maximal at 7.2 µM (EC50). With `Nc1ncnc2c1ncn2[C@@H]1O[C@H](CO)[C@@H](O)[C@H]1O` [ADENOSINE], the Activity in the experiment with PC-12 [3] is recorded as 80%.

The IC50 is the concentration needed to halve the response being measured. For orientation: Ki means a measure of affinity in units of concentration, obtained from inhibition or displacement. High values mean weaker binding, low ones tighter binding. By EC50 is commonly meant the concentration needed to bring the measured effect to its halfway point. Low values mean an effect from little substance, high ones a need for much substance.
